This is an account of results in patent US10023570B2 (Array BioPharma, Inc., priority 2015, dated 2018).

The target of test [1] is N-terminal GST tagged recombinant human RET cytoplasmic domain (aa 658-end), wild type RET kinase (Homo sapiens (Human), UniProt P07949). Briefly: RET Enzyme Assay (HTRF KinEASE-TK), wild type RET. It is filed as biochemical.
In test [2] the target is Kif5b-RET fusion protein in HEK-293 cells (Homo sapiens, UniProt P07949). Briefly: cell-based. On the procedure: The cellular potency of a compound inhibiting RET kinase was determined in HEK-293 cells expressing a Kif5b-RET fusion protein. Briefly, HEK-293 cells expressing a Kif5b-RET fusion protein were plated at 50K cells/well in 96 well poly-D-Lysine coated plates the day prior to the assay. The cells were incubated for 1 hour with test compound in DMEM (Dulbecco's Modified Eagle Medium) at a final DMSO concentration of 0.5%. […] After 1 hour the media was removed, the cells were fixed with 3.8% formaldehyde for 20 min, washed with PBS, and permeabilized for 10 min with 100% methanol. […] All antibodies were diluted in LI-COR Block containing 0.05% Tween. The plates were washed with PBS-0.05% Tween20, 100 μL PBS was added to each well, and the plates were read on a LI-COR Aerius fluorescent plate reader. The phospho-RET signal was normalized to the GAPDH signal. […] The IC50 value is the point where the curve crosses 50 POC.

Setting [3] is: HEK-293 cells expressing Kif5b-RET, read-out: KIF5B-RET pTYR1062 Cell IC50.
Setting [4] is: HEK-293 cells expressing Kif5b-RET, phospho-RET(Tyr1062), read-out: KIF5B-RET pTYR1062 Cell IC50.

Structures are written as SMILES. Structures can show the parent of a compound that is named as a salt. Where two headings read alike, the source gives them in different places.

Kif5b-RET fusion protein in HEK-293 cells, sequence (P07949 29-1114 limits assumed): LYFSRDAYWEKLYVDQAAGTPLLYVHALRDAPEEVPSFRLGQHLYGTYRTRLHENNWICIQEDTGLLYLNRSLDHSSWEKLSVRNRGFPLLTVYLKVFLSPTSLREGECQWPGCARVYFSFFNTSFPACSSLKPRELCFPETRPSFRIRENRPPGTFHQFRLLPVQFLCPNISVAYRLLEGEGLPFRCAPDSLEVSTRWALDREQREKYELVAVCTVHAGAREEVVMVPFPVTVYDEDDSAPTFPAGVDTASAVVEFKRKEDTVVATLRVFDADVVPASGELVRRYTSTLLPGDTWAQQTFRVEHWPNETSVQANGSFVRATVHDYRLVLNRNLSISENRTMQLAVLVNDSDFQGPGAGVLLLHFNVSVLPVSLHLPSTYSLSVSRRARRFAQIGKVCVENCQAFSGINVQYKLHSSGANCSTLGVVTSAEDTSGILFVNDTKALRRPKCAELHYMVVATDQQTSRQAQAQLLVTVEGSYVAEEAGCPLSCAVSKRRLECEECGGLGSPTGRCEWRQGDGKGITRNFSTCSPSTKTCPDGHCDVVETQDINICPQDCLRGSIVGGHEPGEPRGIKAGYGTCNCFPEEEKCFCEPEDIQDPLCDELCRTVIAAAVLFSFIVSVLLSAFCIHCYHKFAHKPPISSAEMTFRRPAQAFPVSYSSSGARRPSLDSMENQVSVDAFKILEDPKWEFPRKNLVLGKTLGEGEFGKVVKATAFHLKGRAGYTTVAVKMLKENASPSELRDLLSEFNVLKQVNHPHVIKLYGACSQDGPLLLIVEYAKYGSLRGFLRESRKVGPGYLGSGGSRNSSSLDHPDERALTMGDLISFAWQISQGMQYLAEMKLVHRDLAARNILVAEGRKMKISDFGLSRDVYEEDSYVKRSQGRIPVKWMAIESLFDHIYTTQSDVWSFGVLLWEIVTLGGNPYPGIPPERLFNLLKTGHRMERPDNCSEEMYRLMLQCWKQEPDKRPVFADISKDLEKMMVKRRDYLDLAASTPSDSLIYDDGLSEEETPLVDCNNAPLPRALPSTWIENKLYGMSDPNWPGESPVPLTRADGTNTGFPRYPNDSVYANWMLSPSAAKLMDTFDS
N-terminal GST tagged recombinant human RET cytoplasmic domain (aa 658-end), wild type RET kinase, sequence (P07949 658-1114): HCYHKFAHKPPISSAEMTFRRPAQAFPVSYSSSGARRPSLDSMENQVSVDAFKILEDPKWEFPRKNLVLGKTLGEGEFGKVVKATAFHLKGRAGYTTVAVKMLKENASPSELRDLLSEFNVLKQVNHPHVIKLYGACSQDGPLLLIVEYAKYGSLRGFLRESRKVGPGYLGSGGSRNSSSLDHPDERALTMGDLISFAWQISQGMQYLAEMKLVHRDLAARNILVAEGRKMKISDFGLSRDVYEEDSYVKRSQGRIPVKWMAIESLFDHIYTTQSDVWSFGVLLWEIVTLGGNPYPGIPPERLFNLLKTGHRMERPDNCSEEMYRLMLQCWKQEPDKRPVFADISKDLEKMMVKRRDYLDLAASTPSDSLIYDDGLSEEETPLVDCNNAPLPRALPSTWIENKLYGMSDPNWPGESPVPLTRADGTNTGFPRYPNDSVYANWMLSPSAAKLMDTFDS

For the molecule `CCc1cnn2cc(-c3cnn(C)c3)cc(-c3ccc(N4CCNCC4)nc3)c12` [Example 657, 3-ethyl-6-(1-methyl-1H-pyrazol-4-yl)-4-(6-(piperazin-1-yl)pyridin-3-yl)pyrazolo[1,5-a]pyridine], the IC50 in test [1] (wild type RET, 1 mM ATP) is 0.14 µM; in test [2] (setting [3]) it was 0.215 µM.

For `COc1ccc(CN2CCN(c3ccc(-c4cc(-c5cnn(CC(C)(C)O)c5)cn5ncc(C#N)c45)cn3)CC2)cn1` [Example 702, 6-(1-(2-hydroxy-2-methylpropyl)-1H-pyrazol-4-yl)-4-(6-(4-((6-methoxypyridin-3-yl)methyl)piperazin-1-yl)pyridin-3-yl)pyrazolo[1,5-a]pyridine-3-carbonitrile], the IC50 in test [1] (wild type RET, 1 mM ATP) amounted to 0.0153 µM; in test [2] (setting [3]) it was 0.0056 µM.

In the case of `Cc1nn(C)c(C)c1-c1cc(-c2ccc(N3CCN(Cc4ccccc4)CC3)nc2)c2c(C#N)cnn2c1` [Example 613, 4-(6-(4-benzylpiperazin-1-yl)pyridin-3-yl)-6-(1,3,5-trimethyl-1H-pyrazol-4-yl)pyrazolo[1,5-a]pyridine-3-carbonitrile], the IC50 in test [1] (wild type RET, 1 mM ATP) came out at 0.122 µM; in test [2] it was 0.361 µM.

Consider `Cn1cc(-c2cc(-c3ccc(N4CCN(C(=O)CCS(C)(=O)=O)CC4)nc3)c3c(C#N)cnn3c2)cn1` [Example 3, 6-(1-methyl-1H-pyrazol-4-yl)-4-(6-(4-(3-(methylsulfonyl)propanoyl)piperazin-1-yl)pyridin-3-yl)pyrazolo[1,5-a]pyridine-3-carbonitrile], for which the IC50 in test [1] (wild type RET, 1 mM ATP) came to 0.0119 µM; in test [2] (setting [4]), 0.119 µM.

With `Cc1cnn2cc(-c3cnn(C)c3)cc(-c3ccc(N4CCN(Cc5ccccn5)CC4)nc3)c12` [Example 654, 3-methyl-6-(1-methyl-1H-pyrazol-4-yl)-4-(6-(4-(pyridine-2-ylmethyl)piperazin-1-yl)pyridin-3-yl)pyrazolo[1,5-a]pyridine], the half-maximal inhibitory concentration (IC50) came to 0.0706 µM in test [1] (wild type RET, 1 mM ATP) and 0.164 µM in test [2] (setting [3]).

Turning to `CC(O)CN(C)C(=O)C1CCN(c2ccc(-c3cc(-c4cnn(C)c4)cn4ncc(C#N)c34)cn2)CC1` (stereo not shown) [Example 245, 1-(5-(3-cyano-6-(1-methyl-1H-pyrazol-4-yl)pyrazolo[1,5-a]pyridin-4-yl)pyridin-2-yl)-N-(2-hydroxypropyl)-N-methylpiperidine-4-carboxamide], the half-maximal inhibitory concentration (IC50) in test [1] (wild type RET, 1 mM ATP) stood at 0.0302 µM; in test [2] (setting [4]) it was 0.191 µM.

On to `N#Cc1cnn2cc(-c3cnn(C(F)F)c3)cc(-c3ccc(N4CCNCC4)nc3)c12` [Example 266, 6-(1-(difluoromethyl)-1H-pyrazol-4-yl)-4-(6-(piperazin-1-yl)pyridin-3-yl)pyrazolo[1,5-a]pyridine-3-carbonitrile dihydrochloride], for which the IC50 in test [1] (wild type RET, 1 mM ATP) was determined as 0.0477 µM; in test [2] (read-out: KIF5B-RET pTYR1062 Cell IC50), 0.162 µM.

Take `Cn1cc(-c2cc(-c3ccc(N4CCN(C(=O)OC(C)(C)C)CC4)nc3)c3c(Cl)cnn3c2)cn1` [Example 325, tert-butyl 4-(5-(3-chloro-6-(1-methyl-1H-pyrazol-4-yl)pyrazolo[1,5-a]pyridin-4-yl)pyridin-2-yl)piperazine-1-carboxylate]: the concentration for half-maximal inhibition (IC50) came to 0.372 µM in test [1] (wild type RET, 1 mM ATP) and 0.742 µM in test [2] (setting [4]).

In the case of `COc1ccc(CN2CCN(c3ccc(-c4cc(-c5cnn(C)c5)cn5ncc(C)c45)cn3)CC2)cn1` [Example 744, 4-(6-(4-((6-methoxypyridin-3-yl)methyl)piperazin-1-yl)pyridin-3-yl)-3-methyl-6-(1-methyl-1H-pyrazol-4-yl)pyrazolo[1,5-a]pyridine], the concentration for half-maximal inhibition (IC50) in test [1] (wild type RET, 1 mM ATP) is 0.0462 µM; in test [2], 0.0663 µM.

Consider `Cc1cnn2cc(-c3cnn(C)c3)cc(-c3ccc(N4CCN(Cc5ccccc5)CC4)nc3)c12` [Example 653, 4-(6-(4-benzylpiperazin-1-yl)pyridin-3-yl)-3-methyl-6-(1-methyl-1H-pyrazol-4-yl)pyrazolo[1,5-a]pyridine], for which the IC50 in test [1] (wild type RET, 1 mM ATP) was 0.0869 µM; in test [2] (setting [3]), 0.0694 µM.

`CNC(=O)N1CCN(c2ccc(-c3cc(-c4cnn(C)c4)cn4ncc(C#N)c34)cn2)CC1` [Example 387, 4-(5-(3-cyano-6-(1-methyl-1H-pyrazol-4-yl)pyrazolo[1,5-a]pyridin-4-yl)pyridin-2-yl)-N-methylpiperazine-1-carboxamide]: the IC50 in test [1] (wild type RET, 1 mM ATP) came out at 0.0251 µM; in test [2], 0.0532 µM.

For `COc1cccc(CN2CCN(c3ccc(-c4cc(-c5cnn(C)c5)cn5ncc(C#N)c45)cn3)CC2)n1` [Example 399, 4-(6-(4-((6-methoxypyridin-2-yl)methyl)piperazin-1-yl)pyridin-3-yl)-6-(1-methyl-1H-pyrazol-4-yl)pyrazolo[1,5-a]pyridine-3-carbonitrile], the 50% inhibitory concentration (IC50) in test [1] (wild type RET, 1 mM ATP) came to 0.0108 µM; in test [2] (setting [3]), 0.0077 µM.

With `CC(C)(C)OC(=O)N1CCN(c2ccc(-c3cc(-c4cnn(C(F)F)c4)cn4ncc(C#N)c34)cn2)CC1` [Example 265, tert-Butyl 4-(5-(3-cyano-6-(1-(difluoromethyl)-1H-pyrazol-4-yl)pyrazolo[1,5-a]pyridin-4-yl)pyridin-2-yl)piperazine-1-carboxylate], the half-maximal inhibitory concentration (IC50) was determined as 0.153 µM in test [1] (wild type RET, 1 mM ATP) and 0.289 µM in test [2] (setting [4]).

As to `COc1ccc(CN2CCN(c3ccc(-c4cc(-c5cnn(CC(C)CO)c5)cn5ncc(C#N)c45)cn3)CC2)cn1` (stereo in doubt) [Example 707, (R)-6-(1-(3-hydroxy-2-methylpropyl)-1H-pyrazol-4-yl)-4-(6-(4-((6-methoxypyridin-3-yl)methyl)piperazin-1-yl)pyridin-3-yl)pyrazolo[1,5-a]pyridine-3-carbonitrile], the half-inhibitory concentration (IC50) was 0.0201 µM in test [1] (wild type RET, 1 mM ATP) and 0.0065 µM in test [2] (setting [3]).

Take `COc1cccc(CN2CCN(c3ccc(-c4cc(-c5cn[nH]c5)cn5ncc(C#N)c45)cn3)CC2)n1` [Example 699, 4-(6-(4-((6-methoxypyridin-2-yl)methyl)piperazin-1-yl)pyridin-3-yl)-6-(1H-pyrazol-4-yl)pyrazolo[1,5-a]pyridine-3-carbonitrile]: the concentration for half-maximal inhibition (IC50) in test [1] (wild type RET, 1 mM ATP) was 0.0194 µM; in test [2] (setting [3]), 0.0243 µM.

As for `CN(C)C(=O)C1CCN(c2ccc(-c3cc(-c4cnn(C)c4)cn4ncc(C#N)c34)cn2)CC1` [Example 562, 1-(5-(3-cyano-6-(1-methyl-1H-pyrazol-4-yl)pyrazolo[1,5-a]pyridine-4-yl)pyridine-2-yl)-N,N-dimethylpiperidine-4-carboxamide 2,2,2-trifluoroacetate], the IC50 turned out to be 0.056 µM in test [1] and 0.0586 µM in test [2] (setting [3]).

As for `COC(CN1CCN(c2ccc(-c3cc(-c4cnn(C)c4)cn4ncc(C#N)c34)cn2)CC1)C(C)(C)C` (stereo not shown) [Example 417, 4-(6-(4-(2-methoxy-3,3-dimethylbutyl)piperazin-1-yl)pyridin-3-yl)-6-(1-methyl-1H-pyrazol-4-yl)pyrazolo[1,5-a]pyridine-3-carbonitrile], the concentration for half-maximal inhibition (IC50) in test [1] (wild type RET, 1 mM ATP) came to 0.0371 µM; in test [2] (setting [3]), 0.0485 µM.

Consider `COc1ccc(CN2CCN(c3ccc(-c4cc(-c5cnn(CCS(=O)(=O)C(C)C)c5)cn5ncc(C#N)c45)cn3)CC2)cn1` [Example 703, 6-(1-(2-(isopropylsulfonyl)ethyl)-1H-pyrazol-4-yl)-4-(6-(4-((6-methoxypyridin-3-yl)methyl)piperazin-1-yl)pyridin-3-yl)pyrazolo[1,5-a]pyridine-3-carbonitrile], for which the concentration for half-maximal inhibition (IC50) in test [1] (wild type RET, 1 mM ATP) stood at 0.0164 µM; in test [2] (setting [3]), 0.0098 µM.

With `CC[C@@H](CO)NC(=O)N1CCN(c2ccc(-c3cc(-c4cnn(C)c4)cn4ncc(C#N)c34)cn2)CC1` [Example 122, (S)-4-(5-(3-cyano-6-(1-methyl-1H-pyrazol-4-yl)pyrazolo[1,5-a]pyridin-4-yl)pyridin-2-yl)-N-(1-hydroxybutan-2-yl)piperazine-1-carboxamide], the concentration for half-maximal inhibition (IC50) in test [1] (wild type RET, 1 mM ATP) was determined as 0.0113 µM; in test [2] (setting [4]), 0.267 µM.

On to `COc1ccc(CN2CCN(c3ccc(-c4cc(-c5cn[nH]c5)cn5ncc(C#N)c45)cn3)CC2)cn1` [Example 698, 4-(6-(4-((6-methoxypyridin-3-yl)methyl)piperazin-1-yl)pyridin-3-yl)-6-(1H-pyrazol-4-yl)pyrazolo[1,5-a]pyridine-3-carbonitrile], for which the concentration for half-maximal inhibition (IC50) in test [1] (wild type RET, 1 mM ATP) is 0.0067 µM; in test [2] (setting [3]), 0.0124 µM.

Consider `COc1ccc(CN2CCN(c3ccc(-c4cc(-c5cnn(CCOC(C)C)c5)cn5ncc(C#N)c45)cn3)CC2)cn1` [Example 704, 6-(1-(2-isopropoxyethyl)-1H-pyrazol-4-yl)-4-(6-(4-((6-methoxypyridin-3-yl)methyl)piperazin-1-yl)pyridin-3-yl)pyrazolo[1,5-a]pyridine-3-carbonitrile], for which the IC50 in test [1] (wild type RET, 1 mM ATP) worked out at 0.0301 µM; in test [2], 0.0083 µM.

Consider `CC(C)OCCN1CCN(c2ccc(-c3cc(-c4cnn(C(F)F)c4)cn4ncc(C#N)c34)cn2)CC1` [Example 585, 6-(1-(difluoromethyl)-1H-pyrazol-4-yl)-4-(6-(4-(2-isopropoxyethyl)piperazin-1-yl)pyridin-3-yl)pyrazolo[1,5-a]pyridine-3-carbonitrile], for which the half-maximal inhibitory concentration (IC50) was determined as 0.0136 µM in test [1] (wild type RET, 1 mM ATP) and 0.0132 µM in test [2].

Consider `Cn1cc(-c2cc(-c3ccc(N4CCN(Cc5ccc(OCC(F)(F)F)nc5)CC4)nc3)c3c(C#N)cnn3c2)cn1` [Example 674, 6-(1-methyl-1H-pyrazol-4-yl)-4-(6-(4-((6-(2,2,2-trifluoroethoxy)pyridin-3-yl)methyl)piperazin-1-yl)pyridin-3-yl)pyrazolo[1,5-a]pyridine-3-carbonitrile], for which the IC50 came to 0.0425 µM in test [1] (wild type RET, 1 mM ATP) and 0.0747 µM in test [2] (setting [3]).
